Consider 19 molecules from PMC9569680, “Antiviral Compounds Screening Targeting HBx Protein of the Hepatitis B Virus” (International Journal of Molecular Sciences, 2022).

Experiment [1] concerns the target T1, GST-HBx (genotype D); HBx-D (Hepatitis B virus, UniProt Q80IS1).
T1 construct: gene X; N-terminal GST tag kept (GST 26 kDa; GST-HBx 43 kDa), full-length HBx (154 aa), pGEX, E. coli BL21 (DE3), glutathione-Sepharose
The experiment in a line: SPR imaging, compound array (PlexArray HT). The experiment is classed as binding. An excerpt:
SPR imaging, compound array (PlexArray HT) on GST-HBx (genotype D); HBx-D

In experiment [2] the target is T1, GST-HBx (genotype D); HBx-D. Description: biochemical. On the set-up: Surface plasmon resonance imaging; GST-HBx injected over chip of photo-crosslinked FDA-approved drugs (PlexArray HT), Langmuir fit. On the procedure:
All the assays and analyses were performed by Plexera LLC. The binding activity was measured by surface plasmon resonance imaging (SPRi) using a PlexArray HT system (Plexera LLC). The FDA1018 drug library chip consists of an array of 1018 U.S. FDA-approved drugs were ultraviolet-linked on the surface of a chip and used for screening of compounds that bind to the HBx protein. Phosphate-buffered saline was used for a running buffer and 10 mM glycine hydrochloride (pH 2.0) for a regeneration buffer. 25, 50, or 100 nM of GST-HBx protein were injected on the chip surface at a flow rate of […] in order, and the SPRi signal was measured at 25 °C. FK506-binding protein 12 (FKBP12) was used for a positive control (Supplementary Figure S1). The data were analyzed by Plexera Data Analysis Software based on Langmuir adsorption isotherm, and determination of the dissociation constant, dissociation rate constant, and association rate constant was carried out. The binding of GST-HBx protein to 1018 FDA-approved compounds was screened on a chip by SPRi assay. […] Because purification of HBx alone was difficult due to insolubility, HBx was expressed as a GST-fused protein.

The target of experiment [3] is T2, GST-HBx (genotype B); HBx-B.
T2 construct: gene X; N-terminal GST tag kept (GST 26 kDa; GST-HBx 43 kDa), full-length HBx (154 aa), pGEX, E. coli BL21 (DE3), glutathione-Sepharose
The experiment in a line: SPR imaging, compound array (PlexArray HT). Details: species or system Hepatitis B virus. Conditions: PBS, 25 °C; compound UV-linked to chip surface, GST-HBx 25-100 nM as analyte.

Molecules are shown by their SMILES. Where a name gives a salt, the structure may show the parent alone. Read-outs that look alike come from different tables or passages of the source.

As usually defined, the Kd is the free concentration of one partner at which half of the binding sites on the other are occupied at equilibrium, for simple one-to-one binding. Lower therefore signals higher affinity. Usually koff stands for the first-order rate constant of dissociation. Higher therefore signals fast dissociation. For orientation: kon means the rate constant with which the complex forms. `CCCCC(CC)CNC(=N)NC(=N)NCCCCCCNC(=N)NC(=N)NCC(CC)CCCC` (stereo not drawn) [Alexidine hydrochloride] displayed a Kd in experiment [1] of 0.0495 nM. This molecule also displayed a dissociation rate constant (koff) in experiment [2] of 7.83e-06 s⁻¹. In addition, the on-rate constant (kon) in experiment [2] (read-out: kon) came out at 158000 M⁻¹ s⁻¹.
Molecule `CC1(C)[C@@H](O[C@H]2O[C@H](C(=O)O)[C@@H](O)[C@H](O)[C@H]2O[C@@H]2O[C@H](C(=O)O)[C@@H](O)[C@H](O)[C@H]2O)CC[C@]2(C)[C@H]3C(=O)C=C4[C@@H]5C[C@@](C)(C(=O)O)CC[C@]5(C)CC[C@@]4(C)[C@]3(C)CC[C@@H]12` [Ammonium glycyrrhizinate] came in with a Kd in experiment [1] of 0.756 nM. Besides, in experiment [2], the off-rate (koff) was found to be 0.000108 s⁻¹. Besides, in experiment [2] (read-out: kon), the kon stood at 143000 M⁻¹ s⁻¹.
In experiment [2], `CCOc1nc2cccc(C(=O)O)c2n1Cc1ccc(-c2ccccc2-c2noc(=O)[nH]2)cc1` [Azilsartan] returned a Kd of 2.38 nM and a dissociation rate constant (koff) of 0.000348 s⁻¹. Also, in experiment [2] (read-out: kon), the kon came to 146000 M⁻¹ s⁻¹.
Take `CC[C@H]1OC(=O)[C@H](C)[C@@H](O[C@H]2C[C@@](C)(OC)[C@@H](O)[C@H](C)O2)[C@H](C)[C@@H](O[C@@H]2O[C@H](C)C[C@H](N(C)C)[C@H]2O)[C@](C)(O)C[C@@H](C)CN(C)[C@H](C)[C@@H](O)[C@]1(C)O` [Azithromycin]: the results for the equilibrium dissociation constant (Kd) in experiment [3], in experiment [1] and in experiment [2] were 1.31 nM, 0.0467 nM and 1.15 nM, respectively. Besides, the on-rate (kon) was determined as 89200 M⁻¹ s⁻¹ in experiment [2] (binder, kon (M-1 s-1)) and 85100 M⁻¹ s⁻¹ in experiment [2] (read-out: kon).
In experiment [2], `CC(C)NCC(O)COc1ccc(CCOCC2CC2)cc1` (stereo not drawn) [Betaxolol] showed a Kd of 1.28 nM and a dissociation rate constant (koff) of 9.85e-06 s⁻¹. For the same molecule, the kon in experiment [2] (read-out: kon) worked out at 7710 M⁻¹ s⁻¹.
The corresponding values for `CCOc1nc2cccc(C(=O)O)c2n1Cc1ccc(-c2ccccc2-c2nnn[nH]2)cc1` [Candesartan] are 1.33 nM, 0.00021 s⁻¹ and 158000 M⁻¹ s⁻¹.
The corresponding values for `O=C(O)c1ccc(-n2nc(-c3ccccc3O)nc2-c2ccccc2O)cc1` [Deferasirox] are 1.4 nM, 0.000134 s⁻¹ and 95800 M⁻¹ s⁻¹.
`CCCCCCCCCCCC[N+](C)(C)CCOc1ccccc1` [Domiphen Bromide] came in with a Kd in experiment [1] of 0.0288 nM. Also, the off-rate (koff) in experiment [2] is 3.03e-06 s⁻¹. The on-rate constant (kon) in experiment [2] (read-out: kon) amounted to 105000 M⁻¹ s⁻¹.
In experiment [2], `CC1=NN(c2ccc(C)c(C)c2)C(=O)/C1=N\Nc1cccc(-c2cccc(C(=O)O)c2)c1O` [Eltrombopag] displayed a Kd of 8.46 nM and a koff of 0.000385 s⁻¹. The on-rate constant (kon) in experiment [2] (read-out: kon) came out at 45500 M⁻¹ s⁻¹.
The corresponding values for `CCC1=C(C)CN(C(=O)NCCc2ccc(S(=O)(=O)NC(=O)N[C@H]3CC[C@H](C)CC3)cc2)C1=O` [Glimepiride] are 9.81 nM, 0.000366 s⁻¹ and 37300 M⁻¹ s⁻¹.
In experiment [2], `Cc1cnc(C(=O)NCCc2ccc(S(=O)(=O)NC(=O)NC3CCCCC3)cc2)cn1` [Glipizide] returned a Kd of 4.49 nM and a koff of 0.000203 s⁻¹. Moreover, the on-rate (kon) in experiment [2] (read-out: kon) was determined as 45100 M⁻¹ s⁻¹.
Take `CC(C)[C@H]1CC[C@H](C(=O)N[C@H](Cc2ccccc2)C(=O)O)CC1` [Nateglinide]: in experiment [2], the Kd was 2.31 nM and the koff is 0.00016 s⁻¹. In addition, in experiment [2] (read-out: kon), the association rate constant (kon) turned out to be 69100 M⁻¹ s⁻¹.
In experiment [2], `CCCc1nc(C(C)(C)O)c(C(=O)OCc2oc(=O)oc2C)n1Cc1ccc(-c2ccccc2-c2nnn[nH]2)cc1` [Olmesartan medoxomil] registered an off-rate (koff) of 0.000581 s⁻¹. In addition, the on-rate constant (kon) in experiment [2] (read-out: kon) was determined as 108000 M⁻¹ s⁻¹.
Consider `CC(C(=O)O)c1ccc2c(c1)Cc1cccnc1O2` (stereo not drawn) [Pranoprofen], for which, in experiment [2], the Kd came out at 5.58 nM and the koff was 0.000292 s⁻¹. For the same molecule, the on-rate (kon) in experiment [2] (read-out: kon) was found to be 52300 M⁻¹ s⁻¹.
The like results for `Cc1noc(NS(=O)(=O)c2ccc(N)cc2)c1C` [Sulfisoxazole] were, in that order, 9.88 nM, 0.000509 s⁻¹ and 51500 M⁻¹ s⁻¹.
The like results for `CC(C(=O)O)c1ccc(C(=O)c2cccs2)cc1` (stereo not drawn) [Suprofen] were, in that order, 2.75 nM, 0.000308 s⁻¹ and 112000 M⁻¹ s⁻¹.
As to `CC[C@H]1OC(=O)C[C@@H](O)[C@H](C)[C@@H](O[C@@H]2O[C@H](C)[C@@H](O)[C@H](N(C)C)[C@H]2O)[C@@H](CCN2C[C@H](C)C[C@H](C)C2)C[C@@H](C)C(=O)/C=C/C(C)=C/[C@@H]1CO[C@@H]1O[C@H](C)[C@@H](O)[C@@H](OC)[C@H]1OC` [Tilmicosin], in experiment [2], the affinity, expressed as Kd, was 1.3 nM and the off-rate (koff) is 8.79e-05 s⁻¹. Besides, the association rate constant (kon) in experiment [2] (read-out: kon) was 67700 M⁻¹ s⁻¹.
Turning to `COc1ccc(/C=C/C(=O)Nc2ccccc2C(=O)O)cc1OC` [Tranilast], the dissociation constant (Kd) in experiment [3] was 0.184 nM; in experiment [1] it was 0.00135 nM. Further, the koff in experiment [2] is 2.61e-07 s⁻¹. In addition, the on-rate (kon) in experiment [2] (read-out: kon) was 194000 M⁻¹ s⁻¹.
With `CCCCC(=O)N(Cc1ccc(-c2ccccc2-c2nn[nH]n2)cc1)[C@H](C(=O)O)C(C)C` [Valsartan], the Kd was 7.94 nM in experiment [3] and 0.912 nM in experiment [1]. This molecule showed a koff in experiment [2] of 0.00017 s⁻¹. In experiment [2] (read-out: kon), the association rate constant (kon) was 186000 M⁻¹ s⁻¹.
